Consider 27 compounds from patent publication US20220168315A1, “COMPOUNDS AND THERAPEUTIC USES THEREOF” (priority 2019, published 2022).

This assay deals with T1, PIKfyve (Homo sapiens, UniProt Q9Y2I7).
T1 construct: T7 phage fusion (kinase-tagged phage) or DNA tag for qPCR; made in house; host or cells: E. coli BL21-derived host (T7 phage) for most kinases, HEK-293 for the rest
The experiment in a line: Kinase binding assay (kinase-tagged T7 phage, affinity beads, qPCR readout), Kd determination. To be noted: 11-point 3-fold dilution series. Here is the method: Kinase assays. For most assays, kinase-tagged T7 phage strains were prepared in an E. coli host derived from the BL21 strain. E. coli were grown to log-phase and infected with T7 phage and incubated with shaking at 32° C. until lysis. The lysates were centrifuged and filtered to remove cell debris. The remaining kinases were produced in HEK-293 cells and subsequently tagged with DNA for qPCR detection. Streptavidin-coated magnetic beads were treated with biotinylated small molecule ligands for 30 minutes at room temperature to generate affinity resins for kinase assays. The liganded beads were blocked with excess biotin and washed with blocking buffer (SeaBlock (Pierce), 1% BSA, 0.05% Tween 20, 1 mM DTT) to remove unbound ligand and to reduce non-specific binding. Binding reactions were assembled by combining kinases, liganded affinity beads, and test compounds in 1× binding buffer (20% SeaBlock, 0.17×PBS, 0.05% Tween 20, 6 mM DTT). Test compounds were prepared as 111× stocks in 100% DMSO. Kds were determined using an 11-point 3-fold compound dilution series with three DMSO control points. All compounds for Kd measurements are distributed by acoustic transfer (non-contact dispensing) in 100% DMSO. The compounds were then diluted directly into the assays such that the final concentration of DMSO was 0.9%. All reactions performed in polypropylene 384-well plate. Each was a final volume of 0.02 ml. The assay plates were incubated at room temperature with shaking for 1 hour and the affinity beads were washed with wash buffer (1×PBS, 0.05% Tween 20). The beads were then re-suspended in elution buffer (1×PBS, 0.05% Tween 20, 0.5 μM non-biotinylated affinity ligand) and incubated at room temperature with shaking for 30 minutes. The kinase concentration in the eluates was measured by qPCR.
An 11-point 3-fold serial dilution of each test compound was prepared in 100% DMSO at 100× final test concentration and subsequently diluted to 1× in the assay (final DMSO concentration=1%). Most Kds were determined using a compound top concentration=30,000 nM. If the initial Kd determined was <0.5 nM (the lowest concentration tested), the measurement was repeated with a serial dilution starting at a lower top concentration.

SMILES strings stand for the structures. A value given as a limit tells only on which side of the number the result lay.

T1 sequence (Q9Y2I7 whole entry, the tested form may be a part): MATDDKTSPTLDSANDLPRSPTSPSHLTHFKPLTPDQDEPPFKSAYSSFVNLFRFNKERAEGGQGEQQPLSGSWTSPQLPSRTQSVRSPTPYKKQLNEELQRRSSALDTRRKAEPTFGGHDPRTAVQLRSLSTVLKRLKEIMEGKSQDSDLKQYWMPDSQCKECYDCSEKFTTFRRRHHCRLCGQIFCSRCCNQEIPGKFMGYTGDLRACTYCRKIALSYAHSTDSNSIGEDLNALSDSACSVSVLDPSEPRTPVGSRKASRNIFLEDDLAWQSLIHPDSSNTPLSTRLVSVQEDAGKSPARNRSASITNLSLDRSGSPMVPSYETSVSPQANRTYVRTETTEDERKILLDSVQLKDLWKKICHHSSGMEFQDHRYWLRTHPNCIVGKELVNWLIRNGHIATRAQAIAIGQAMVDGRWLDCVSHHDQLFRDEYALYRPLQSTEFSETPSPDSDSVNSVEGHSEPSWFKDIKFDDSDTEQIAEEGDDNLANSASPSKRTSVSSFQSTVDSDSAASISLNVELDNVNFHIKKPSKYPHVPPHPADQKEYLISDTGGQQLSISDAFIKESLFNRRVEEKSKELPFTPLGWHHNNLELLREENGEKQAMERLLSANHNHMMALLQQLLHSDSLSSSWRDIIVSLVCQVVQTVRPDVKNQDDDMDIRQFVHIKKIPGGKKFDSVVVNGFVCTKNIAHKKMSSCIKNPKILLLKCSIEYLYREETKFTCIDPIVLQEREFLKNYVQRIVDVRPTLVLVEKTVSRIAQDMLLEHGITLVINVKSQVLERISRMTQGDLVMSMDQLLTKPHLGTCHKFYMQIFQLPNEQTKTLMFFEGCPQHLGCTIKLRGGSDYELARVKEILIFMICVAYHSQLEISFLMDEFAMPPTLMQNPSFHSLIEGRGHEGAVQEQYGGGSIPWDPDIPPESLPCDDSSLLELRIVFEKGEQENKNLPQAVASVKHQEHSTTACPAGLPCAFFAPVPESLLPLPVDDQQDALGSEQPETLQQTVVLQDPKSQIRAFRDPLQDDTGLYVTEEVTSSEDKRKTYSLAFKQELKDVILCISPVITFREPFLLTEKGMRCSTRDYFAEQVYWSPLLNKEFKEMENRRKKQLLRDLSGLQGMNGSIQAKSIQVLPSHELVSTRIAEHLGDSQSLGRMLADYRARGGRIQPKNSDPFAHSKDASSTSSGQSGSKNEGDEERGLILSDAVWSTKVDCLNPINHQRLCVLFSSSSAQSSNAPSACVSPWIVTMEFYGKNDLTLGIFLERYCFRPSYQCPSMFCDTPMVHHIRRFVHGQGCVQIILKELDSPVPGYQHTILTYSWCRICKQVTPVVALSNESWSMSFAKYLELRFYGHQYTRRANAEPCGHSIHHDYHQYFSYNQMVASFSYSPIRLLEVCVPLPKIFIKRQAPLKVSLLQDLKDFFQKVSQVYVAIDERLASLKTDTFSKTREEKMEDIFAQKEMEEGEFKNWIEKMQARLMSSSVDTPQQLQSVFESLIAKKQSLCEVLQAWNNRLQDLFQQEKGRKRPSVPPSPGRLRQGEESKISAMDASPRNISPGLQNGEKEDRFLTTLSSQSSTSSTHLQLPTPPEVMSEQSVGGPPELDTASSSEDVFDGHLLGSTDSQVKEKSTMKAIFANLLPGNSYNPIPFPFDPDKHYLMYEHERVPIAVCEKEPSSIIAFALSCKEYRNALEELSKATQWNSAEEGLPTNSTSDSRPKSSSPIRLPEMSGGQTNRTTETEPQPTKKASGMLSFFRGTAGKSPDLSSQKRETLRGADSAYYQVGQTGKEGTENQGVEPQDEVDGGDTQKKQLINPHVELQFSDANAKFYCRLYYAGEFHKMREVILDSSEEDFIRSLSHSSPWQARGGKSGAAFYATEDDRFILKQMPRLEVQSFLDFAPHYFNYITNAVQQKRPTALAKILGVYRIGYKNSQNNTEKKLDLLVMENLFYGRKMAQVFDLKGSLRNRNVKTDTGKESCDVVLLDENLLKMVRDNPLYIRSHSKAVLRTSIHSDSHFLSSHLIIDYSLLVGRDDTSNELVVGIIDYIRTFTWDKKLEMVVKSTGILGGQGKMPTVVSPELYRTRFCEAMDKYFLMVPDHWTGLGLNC

As a reminder, the Kd is the free concentration of one partner at which half of the binding sites on the other are occupied at equilibrium, for simple one-to-one binding. High values mean lower affinity, low ones higher affinity. As to `CCNC(=O)N1Cc2nc(N/N=C/c3cccc(C)c3)nc(N3CCOCC3)c2C1` [Example 1, N-ethyl-4-morpholino-2-[(2E)-2-(m-tolylmethylene)hydrazino]-5,7-dihydropyrrolo[3,4-d]pyrimidine-6-carboxamide], the Kd was 5 to 10 nM.

With `Cc1cccc(/C=N/Nc2nc3c(c(N4CCOCC4)n2)CN(C(=O)Nc2ccc(F)cc2)C3)c1` [Example 2, N-(4-Fluorophenyl)-4-morpholino-2-[(2E)-2-(m-tolylmethylene)hydrazino]-5,7-dihydropyrrolo[3,4-d]pyrimidine-6-carboxamide], the Kd was in the range of 5 to 10 nM.

Take `Cc1cccc(/C=N/Nc2nc3c(c(N4CCOCC4)n2)CN(C(=O)Nc2cccnc2)C3)c1` [Example 3, 4-Morpholino-2-[(2E)-2-(m-tolylmethylene)hydrazino]-N-(3-pyridyl)-5,7-dihydropyrrolo[3,4-d]pyrimidine-6-carboxamide]: the dissociation constant Kd is 1 to 5 nM.

In the case of `Cc1cccc(/C=N/Nc2nc3c(c(N4CCOCC4)n2)CN(C(=O)NC2CCCC2)C3)c1` [Example 4, N-cyclopentyl-4-morpholino-2-[(2E)-2-(m-tolylmethylene)hydrazino]-5,7-dihydropyrrolo[3,4-d]pyrimidine-6-carboxamide], the Kd lay within 1 to 5 nM.

For `Cc1cccc(/C=N/Nc2nc3c(c(N4CCOCC4)n2)CN(C(=O)NC2CCC2)C3)c1` [Example 5, N-cyclobutyl-4-morpholino-2-[(2E)-2-(m-tolylmethylene)hydrazino]-5,7-dihydropyrrolo[3,4-d]pyrimidine-6-carboxamide], the Kd lay within 1 to 5 nM.

`O=C(Nc1cccnc1)N1Cc2nc(N/N=C/c3cccc(O)c3)nc(N3CCOCC3)c2C1` [Example 6, 2-[(2E)-2-[(3-hydroxyphenyl)methylene]hydrazino]-4-morpholino-N-(3-pyridyl)-5,7-dihydropyrrolo[3,4-d]pyrimidine-6-carboxamide] had a Kd of 60 to 100 nM.

In turn, `O=C(Nc1cccnc1)N1Cc2nc(N/N=C/c3cccc(Cl)c3)nc(N3CCOCC3)c2C1` [Example 7, 2-[(2E)-2-[(3-chlorophenyl)methylene]hydrazino]-4-morpholino-N-(3-pyridyl)-5,7-dihydropyrrolo[3,4-d]pyrimidine-6-carboxamide] gave a Kd of 10 to 60 nM.

In turn, `O=C(Nc1cccnc1)N1Cc2nc(N/N=C/c3cccc(C(F)(F)F)c3)nc(N3CCOCC3)c2C1` [Example 8, 4-morpholino-N-(3-pyridyl)-2-[(2E)-2-[[3-(trifluoromethyl)phenyl]methylene]hydrazino]-5,7-dihydropyrrolo[3,4-d]pyrimidine-6-carboxamide] yielded a Kd of 100 to 2000 nM.

`Cc1cccc(/C=N/Nc2nc3c(c(N4CCOCC4)n2)CN(Cc2cccnc2)C3)c1` [Example 10, 4-morpholino-N-[(E)-m-tolylmethyleneamino]-6-(3-pyridylmethyl)-5,7-dihydropyrrolo[3,4-d]pyrimidin-2-amine] had a Kd of 1 to 5 nM.

`Cc1cccc(/C=N/Nc2nc3c(c(N4CCOCC4)n2)CN(Cc2ccccn2)C3)c1` [Example 11, 4-morpholino-N-[(E)-m-tolylmethyleneamino]-6-(2-pyridylmethyl)-5,7-dihydropyrrolo[3,4-d]pyrimidin-2-amine] gave a Kd of 10 to 60 nM.

`Cc1cccc(/C=N/Nc2nc3c(c(N4CCOCC4)n2)CN(S(=O)(=O)c2cn(C)cn2)C3)c1` [Example 15, 6-(1-methylimidazol-4-yl)sulfonyl-4-morpholino-N-[(E)-m-tolylmethyleneamino]-5,7-dihydropyrrolo[3,4-d]pyrimidin-2-amine]: the Kd is no more than 1 nM.

In the case of `Cc1cccc(/C=N/Nc2nc3c(c(N4CCOCC4)n2)CN(S(=O)(=O)c2cccc(C(=O)O)c2)C3)c1` [Example 16, 3-[[4-morpholino-2-[(2E)-2-(m-tolylmethylene)hydrazino]-5,7-dihydropyrrolo[3,4-d]pyrimidin-6-yl]sulfonyl]benzoic acid], the Kd was 1 to 5 nM.

Regarding `Cc1cccc(/C=N/Nc2nc3c(c(N4CCOCC4)n2)CN(S(=O)(=O)c2ccc(C(=O)O)cc2)C3)c1` [Example 17, 4-[[4-morpholino-2-[(2E)-2-(m-tolylmethylene)hydrazino]-5,7-dihydropyrrolo[3,4-d]pyrimidin-6-yl]sulfonyl]benzoic acid], the Kd is 1 to 5 nM.

`Cc1cccc(/C=N/Nc2nc3c(c(N4CCOCC4)n2)CN(S(=O)(=O)c2cccnc2)C3)c1` [Example 19, 4-morpholino-N-[(E)-m-tolylmethyleneamino]-6-(3-pyridylsulfonyl)-5,7-dihydropyrrolo[3,4-d]pyrimidin-2-amine] showed a Kd of 1 to 5 nM.

In the case of `Cc1cccc(/C=N/Nc2nc3c(c(N4CCOCC4)n2)CN(S(=O)(=O)c2c(C)n[nH]c2C)C3)c1` [Example 20, 6-[(3,5-dimethyl-1H-pyrazol-4-yl)sulfonyl]-4-morpholino-N-[(E)-m-tolylmethyleneamino]-5,7-dihydropyrrolo[3,4-d]pyrimidin-2-amine], the Kd was no more than 1 nM.

`Cc1cccc(/C=N/Nc2nc3c(c(N4CCOCC4)n2)CN(S(=O)(=O)N(C)C)C3)c1` [Example 21, N,N-dimethyl-4-morpholino-2-[(2E)-2-(m-tolylmethylene)hydrazino]-5,7-dihydropyrrolo[3,4-d]pyrimidine-6-sulfonamide] had a Kd of 1 to 5 nM.

In the case of `Cc1cccc(/C=N/Nc2nc3c(c(N4CCOCC4)n2)CN(S(=O)(=O)c2c(C)noc2C)C3)c1` [Example 22, 6-(3,5-dimethylisoxazol-4-yl)sulfonyl-4-morpholino-N-[(E)-m-tolylmethyleneamino]-5,7-dihydropyrrolo[3,4-d]pyrimidin-2-amine], the Kd was in the range of 1 to 5 nM.

On to `Cc1cccc(/C=N/Nc2nc3c(c(N4CCOCC4)n2)CN(c2ncccn2)C3)c1` [Example 23, 4-morpholino-N-[(E)-m-tolylmethyleneamino]-6-pyrimidin-2-yl-5,7-dihydropyrrolo[3,4-d]pyrimidin-2-amine], for which the Kd lay within 1 to 5 nM.

Take `Cc1cccc(/C=N/Nc2nc3c(c(N4CCOCC4)n2)CN(c2ccncn2)C3)c1` [Example 24, 4-morpholino-N-[(E)-m-tolylmethyleneamino]-6-pyrimidin-4-yl-5,7-dihydropyrrolo[3,4-d]pyrimidin-2-amine]: the Kd lay in the range of 1 to 5 nM.

As for `Cc1cccc(/C=N/Nc2nc3c(c(N4CCOC[C@@H]4C)n2)CN(c2ncccn2)C3)c1` [Example 25, 4-[(3S)-3-methylmorpholin-4-yl]-N-[(E)-m-tolylmethyleneamino]-6-pyrimidin-2-yl-5,7-dihydropyrrolo[3,4-d]pyrimidin-2-amine], the Kd is 1 to 5 nM.

As to `Cc1cccc(/C=N/Nc2nc3c(c(N4CCOC[C@H]4C)n2)CN(c2ncccn2)C3)c1` [Example 26, 4-[(3R)-3-methylmorpholin-4-yl]-N-[(E)-m-tolylmethyleneamino]-6-pyrimidin-2-yl-5,7-dihydropyrrolo[3,4-d]pyrimidin-2-amine], the Kd fell in the range of 5 to 10 nM.

The compound `Cc1cccc(/C=N/Nc2nc3c(c(N4CCOCC4)n2)CN(C(=O)NC2COC2)C3)c1` [Example 27, 4-morpholino-2-[(2E)-2-(m-tolylmethylene)hydrazino]-N-(oxetan-3-yl)-5,7-dihydropyrrolo[3,4-d]pyrimidine-6-carboxamide] displayed a Kd of 1 to 5 nM.

`Cc1cccc(/C=N/Nc2nc3c(c(N4CCOCC4)n2)CN(C(=O)NC2CNC2)C3)c1` [Example 28, N-(azetidin-3-yl)-4-morpholino-2-[(2E)-2-(m-tolylmethylene)hydrazino]-5,7-dihydropyrrolo[3,4-d]pyrimidine-6-carboxamide] displayed a Kd of 5 to 10 nM.

The compound `Cc1cccc(/C=N/Nc2nc3c(c(N4CCOCC4)n2)CCN(S(=O)(=O)c2c(C)n[nH]c2C)C3)c1` [Example 29, 7-[(3,5-dimethyl-1H-pyrazol-4-yl)sulfonyl]-4-morpholino-N-[(E)-m-tolylmethyleneamino]-6,8-dihydro-5H-pyrido[3,4-d]pyrimidin-2-amine] came in with a Kd of 5 to 10 nM.

In the case of `Cc1cccc(-c2cc(O)n(-c3nc(N4CCOCC4)c4sc(-c5ccncc5)cc4n3)n2)c1` [Example 33, 2-[4-morpholino-6-(4-pyridyl)thieno[3,2-d]pyrimidin-2-yl]-5-(m-tolyl)pyrazol-3-ol methane sulfonate], the Kd was no more than 1 nM.

`COc1cccc(-c2cc(O)n(-c3nc(N4CCOCC4)c4sc(-c5ccncc5)cc4n3)n2)c1` [Example 34, 5-(3-methoxyphenyl)-2-[4-morpholino-6-(4-pyridyl)thieno[3,2-d]pyrimidin-2-yl]pyrazol-3-ol] showed a Kd of 5 to 10 nM.

Compound `Cc1cccc(-c2cc(O)n(-c3nc4c(c(N5CCOCC5)n3)CN(S(=O)(=O)c3c(C)noc3C)C4)n2)c1` [Example 37, 2-[6-(3,5-dimethylisoxazol-4-yl)sulfonyl-4-morpholino-5,7-dihydropyrrolo[3,4-d]pyrimidin-2-yl]-5-(m-tolyl)pyrazol-3-ol] showed a Kd of 100 to 2000 nM.
